Measurements: PMC10541190 (The Journal of Clinical Investigation, 2023)
Several values for one entry are separate records, joined by “and”; a condition that tells them apart may be missing. Equal values may be shown once. Read-outs that look alike come from different tables or passages of the source.

How the values were obtained:
in vitro [1] = conditions: human, Huh7 cell viability (%)
U-87 MG cells = conditions: human, 5 µM
in vitro [2] = conditions: human
in vitro [3] = conditions: African green monkey
[4] = system: SARS-CoV-2 (USA-WA1/2020); assay: microbe, parasite or virus in culture; format: cell-based
Huh7 cells = conditions: human
ErbB4 [5] = conditions: cited from earlier work
ErbB1 (EGFR) = conditions: read-out: KD of binding or IC50 (nM), ErbB1; cited from earlier work
MAP2K5 = conditions: cited from earlier work
BTK = conditions: cited from earlier work
in vitro [6] = conditions: human; remark: listed apart in the source
[7] = system: SARS-CoV-2 (USA-WA1/2020); assay: microbe, parasite or virus in culture; format: cell-based; conditions: Severe acute respiratory syndrome coronavirus 2, Calu-3, read-out: EC50, SARS-CoV-2 infection
SRMS = conditions: cited from earlier work
JAK = conditions: cited from earlier work
VEEV (TC-83) = assay: microbe, parasite or virus in culture; format: cell-based; conditions: Venezuelan equine encephalitis virus, U-87 MG, read-out: EC50, VEEV (TC-83) infection
ErbB1 = conditions: cited from earlier work
ErbB2 = conditions: cited from earlier work
BLK = conditions: cited from earlier work
ErbB3 = conditions: cited from earlier work
ErbB4 [8] = target: T1, ErbB4 (Homo sapiens, UniProt Q15303); assay: biochemical; conditions: read-out: ErbB4 activity (%)
T1 sequence (Q15303 26-1308): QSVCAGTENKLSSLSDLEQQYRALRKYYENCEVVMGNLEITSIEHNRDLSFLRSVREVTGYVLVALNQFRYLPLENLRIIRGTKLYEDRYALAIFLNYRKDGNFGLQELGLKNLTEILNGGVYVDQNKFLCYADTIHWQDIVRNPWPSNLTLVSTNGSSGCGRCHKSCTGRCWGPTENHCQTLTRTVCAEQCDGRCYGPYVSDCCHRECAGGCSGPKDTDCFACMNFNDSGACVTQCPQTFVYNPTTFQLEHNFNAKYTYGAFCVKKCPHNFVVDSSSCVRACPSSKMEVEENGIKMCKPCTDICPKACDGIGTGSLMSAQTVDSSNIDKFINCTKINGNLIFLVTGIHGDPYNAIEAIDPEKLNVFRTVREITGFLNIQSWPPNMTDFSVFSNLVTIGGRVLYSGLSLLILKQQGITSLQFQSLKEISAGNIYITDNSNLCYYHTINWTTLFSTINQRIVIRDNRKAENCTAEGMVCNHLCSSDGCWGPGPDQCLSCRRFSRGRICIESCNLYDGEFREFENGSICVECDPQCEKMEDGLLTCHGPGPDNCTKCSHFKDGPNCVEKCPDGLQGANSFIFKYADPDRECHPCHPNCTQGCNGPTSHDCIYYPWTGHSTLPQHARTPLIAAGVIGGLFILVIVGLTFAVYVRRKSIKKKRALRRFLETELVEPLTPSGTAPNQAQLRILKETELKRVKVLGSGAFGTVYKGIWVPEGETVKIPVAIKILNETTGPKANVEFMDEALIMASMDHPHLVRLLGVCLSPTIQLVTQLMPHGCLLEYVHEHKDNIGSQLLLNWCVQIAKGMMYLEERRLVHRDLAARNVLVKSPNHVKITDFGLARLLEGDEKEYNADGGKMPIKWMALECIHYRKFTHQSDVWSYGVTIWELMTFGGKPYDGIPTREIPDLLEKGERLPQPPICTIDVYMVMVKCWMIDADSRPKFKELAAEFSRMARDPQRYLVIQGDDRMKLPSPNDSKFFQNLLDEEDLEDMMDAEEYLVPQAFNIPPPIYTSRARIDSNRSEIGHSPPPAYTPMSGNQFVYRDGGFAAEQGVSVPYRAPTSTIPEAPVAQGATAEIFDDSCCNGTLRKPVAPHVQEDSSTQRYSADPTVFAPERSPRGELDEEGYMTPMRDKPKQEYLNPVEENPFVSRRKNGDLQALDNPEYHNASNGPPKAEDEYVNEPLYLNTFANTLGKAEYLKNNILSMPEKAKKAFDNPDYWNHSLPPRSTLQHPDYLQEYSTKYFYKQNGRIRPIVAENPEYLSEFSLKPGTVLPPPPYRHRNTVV

ErbB4 [9] = target: T1, ErbB4; conditions: read-out: KD of binding or IC50 (nM), ErbB4; cited from earlier work

CCN(CC)CCNC(=O)c1c(C)[nH]c(/C=C2\C(=O)Nc3ccc(F)cc32)c1C [Sunitinib]
viability at 0.16 µM (in vitro [1]): 102%
viability at 0.63 µM (in vitro [1]): 99.8%
viability at 1.25 µM (in vitro [1]): 89.5%
viability at 10 µM (in vitro [1]): 59%
U-87 MG cell viability (%) (U-87 MG cells): 106.81%
viability at 0.25 µM (in vitro [2]; U-87 MG cell viability (%)): 118%
viability at 0.74 µM (in vitro [2]; U-87 MG cell viability (%)): 110%
viability at 2.5 µM (in vitro [2]; U-87 MG cell viability (%)): 106%
viability at 20 µM (in vitro [2]; U-87 MG cell viability (%)): 44.6%
CC50 (in vitro [3]): 12200 nM
viability at 2.5 µM (in vitro [3]; Cell viability (%), 2.5 μM): 68.8%
viability at 5 µM (in vitro [3]; Cell viability (%), 5 μM): 66.1%
SARS-CoV-2 infection (%) ([4]; 0.5 μM): 94.03% and 125.37% and 116.42%
SARS-CoV-2 infection (%) ([4]; 1 μM): 116.42% and 85.07% and 94.03%
SARS-CoV-2 infection (%) ([4]; 5 μM): 16.57% and 14.33% and 15.67%
EC50 ([4]; Severe acute respiratory syndrome coronavirus 2, Vero, 24 h, read-out: SARS-CoV-2 EC50): 2400 nM
Huh7 cell viability (%) (Huh7 cells; 1.25 µM): 90.21%
Huh7 cell viability (%) (Huh7 cells; 2.5 µM): 75.37%

C=CC(=O)N1CCC[C@@H](n2nc(-c3ccc(Oc4ccccc4)cc3)c3c(N)ncnc32)C1 [Ibrutinib]
% of control, ErbB4 (ErbB4 [5]): 1.0 nM 0%
IC50 (ErbB1 (EGFR)): 1.8 nM
Other targets: MAP2K5 (% of control) (MAP2K5): JAK (0%), BTK (0%), SRMS (0%), BLK (0.1%), ErbB3 (0.1%), MAP2K5 (0.2%)
CC50 (in vitro [2]): > 20000 nM
Other targets: BTK (% of control) (BTK): JAK (0%), BTK (0%), SRMS (0%), BLK (0.1%), ErbB3 (0.1%), MAP2K5 (0.2%)
CC50 (in vitro [6]): > 20000 nM
EC50 [7]: 800 nM
Other targets: SRMS (% of control) (SRMS): JAK (0%), BTK (0%), SRMS (0%), BLK (0.1%), ErbB3 (0.1%), MAP2K5 (0.2%)
Other targets: JAK (% of control) (JAK): JAK (0%), BTK (0%), SRMS (0%), BLK (0.1%), ErbB3 (0.1%), MAP2K5 (0.2%)
EC50 (VEEV (TC-83)): 500 nM
% of control, ErbB1 (ErbB1): 1.8 nM 1.8%
% of control, ErbB2 (ErbB2): 12.1 nM 0%
Other targets: BLK (% of control) (BLK): JAK (0%), BTK (0%), SRMS (0%), BLK (0.1%), ErbB3 (0.1%), MAP2K5 (0.2%)
Other targets: ErbB3 (% of control) (ErbB3): JAK (0%), BTK (0%), SRMS (0%), BLK (0.1%), ErbB3 (0.1%), MAP2K5 (0.2%)

CNC(=O)CN1CCC(Oc2cc3c(Nc4cccc(Cl)c4F)ncnc3cc2OC)CC1 [Sapitinib]
IC50 (ErbB1 (EGFR)): 12 nM
CC50 (in vitro [2]): > 20000 nM
CC50 (in vitro [6]): > 20000 nM
viability (in vitro [6]; Calu-3 viability (%)): 82.2%
EC50 [7]: 1800 nM
EC50 (VEEV (TC-83)): 2600 nM
activity at 0.00305 µM (ErbB4 [8]): 37.7%
activity at 0.0274 µM (ErbB4 [8]): 10.2%
activity at 0.08 µM (ErbB4 [8]): 5.52%
activity at 0.25 µM (ErbB4 [8]): 2.84%
activity at 0.74 µM (ErbB4 [8]): 1.25%
activity at 2.22 µM (ErbB4 [8]): 2.36%
activity at 6.67 µM (ErbB4 [8]): 1.4%
activity at 20 µM (ErbB4 [8]): 1.27%
activity at 60 µM (ErbB4 [8]): 0%
activity at […] (ErbB4 [8]): 18.7% and 54.8%
IC50 (ErbB4 [9]): 1.4 nM
